For series [1], the target named is T1, CaSR (Rattus norvegicus, UniProt P48442).
T1 construct: expressed in transfected cells; host or cells: CHO (Chinese hamster ovary) cells
T1 sequence (P48442 20-1079): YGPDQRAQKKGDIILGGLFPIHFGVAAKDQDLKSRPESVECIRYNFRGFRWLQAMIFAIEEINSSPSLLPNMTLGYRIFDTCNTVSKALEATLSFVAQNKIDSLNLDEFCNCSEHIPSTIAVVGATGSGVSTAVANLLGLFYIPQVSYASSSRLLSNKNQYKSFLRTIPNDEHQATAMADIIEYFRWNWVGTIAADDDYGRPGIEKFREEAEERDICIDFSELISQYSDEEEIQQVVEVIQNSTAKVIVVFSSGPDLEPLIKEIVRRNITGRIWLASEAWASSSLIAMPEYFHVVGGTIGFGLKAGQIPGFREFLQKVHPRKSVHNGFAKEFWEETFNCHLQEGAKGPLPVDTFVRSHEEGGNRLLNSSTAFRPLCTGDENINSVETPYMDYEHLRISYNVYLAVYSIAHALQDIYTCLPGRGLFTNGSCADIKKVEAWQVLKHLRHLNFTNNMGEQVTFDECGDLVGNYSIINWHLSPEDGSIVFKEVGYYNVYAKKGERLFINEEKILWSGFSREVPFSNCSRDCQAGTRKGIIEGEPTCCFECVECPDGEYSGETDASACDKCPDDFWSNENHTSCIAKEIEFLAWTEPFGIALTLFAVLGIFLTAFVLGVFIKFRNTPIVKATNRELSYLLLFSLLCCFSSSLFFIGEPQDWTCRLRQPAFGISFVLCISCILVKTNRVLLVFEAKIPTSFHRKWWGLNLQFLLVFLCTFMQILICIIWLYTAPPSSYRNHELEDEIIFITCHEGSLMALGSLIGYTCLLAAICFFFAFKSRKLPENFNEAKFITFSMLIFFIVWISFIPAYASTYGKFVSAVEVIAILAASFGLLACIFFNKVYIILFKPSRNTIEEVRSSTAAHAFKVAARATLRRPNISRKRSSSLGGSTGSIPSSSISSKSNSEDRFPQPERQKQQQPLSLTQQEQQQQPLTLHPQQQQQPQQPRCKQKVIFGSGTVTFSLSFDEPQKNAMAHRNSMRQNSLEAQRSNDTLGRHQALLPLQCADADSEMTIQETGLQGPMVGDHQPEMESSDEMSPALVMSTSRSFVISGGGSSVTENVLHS
Kind of series: Accumulation of tritiated inositol phosphates [3H]IP induced by 9 mM extracellular Ca2+ in transfected CHO(CaSR) cells. Format: cell-based. As to conditions: for remaining activity at 10 µM: 0.5 h, compounds at 10 μM, induced by 9 mM Ca2+, control = 9 mM (Ca2+)e alone = 100, mean of 2 to 4 experiments, read-out: Accumulation of [^3H]IP % relative to the control; for remaining activity at 10 µM / inhibition of the accumulation of [^3H]IP induced by 9 mM (Ca^2+)e: CHO(CaSR) cells; for inhibition of the accumulation of [^3H]IP induced by 9 mM (Ca^2+)e / type of activity on production of [^3H]IP (calcimimetic/calcilytic): 10 μM compound, 9 mM (Ca2+)e. The text has this:
Complementary DNA encoding rat CaSR has been isolated from a rat striatum cDNA library (Ruat et al., Proc. Natl. Acad. Sci., 1995, vol. 92, p. 3161–3165). This receptor is identical with respect to its amino acid sequence to that expressed in the other tissues. Transfected Chinese hamster ovary_(CHO) cells expressing rat CaSR(CHO(CaSR)) have been characterized and the chemical signals (second messengers) induced by the activation of this receptor have been analyzed. Thus, a biochemical test which makes it possible to measure the accumulation of tritiated inositol phosphates [^3H]IP in response to the activation of the receptor has been developed (Ruat et al., J. Biol. Chem., 1996, vol. 271, p. 5972–5975; Ferry et al., Biochem. Biophys. Res. Commun., 1997, vol. 238, p. 866–873).
The technique for measuring the accumulation of tritiated inositol phosphates [^3H]IP which is used is that described in Ruat et al., J. Biol. Chem., 1996, vol. 271, p. 5972-5975. Only the mode of incubating the compounds is modified. After a preincubation of 15 min of the compounds according to the invention in the presence of a basal concentration of (Ca^2+)e equal to 2 mM, the compounds are incubated for 30 min in the presence of a (Ca^2+)e concentration of 4 or 9 mM. The results, mean of 2 to 4 independent experiments each carried out in triplicate, are grouped together in Table 2.
The activity of the compounds is expressed as a percentage of the control activity measured in the presence of (Ca^2+)e alone of concentration 4 mM or 9 mM.

Series [2] concerns cell proliferation in the parathyroid gland. The conditions noted are these: rat model reproducing chronic renal insufficiency; cited from earlier work.
For series [3] the following is noted: clinical trials Phase I-II; cited from earlier work.
Series [4] deals with T1, CaSR. Kind of series: Specificity: [3H]IP accumulation by compound alone in CHO(CaSR) cells, relative to basal level at 2 mM Ca2+. As to conditions: compound alone at 10 μM; CHO(CaSR) cells (sentence also names control CHO(WT*) cells). The format is cell-based. Here is the method:
(§1) To assess the specificity of the antagonist activity of the molecules according to the invention, the effect of one of them, PHD 263, was studied under various calcium conditions, in the presence or otherwise of ATP on CHO(WT*) and CHO(CaSR) cells. […] The accumulation of tritiated inositol phosphates is expressed as a percentage of the basal level observed in the presence of 2 mM Ca^2+ (100) in the CHO(WT*) or CHO(CaSR) cells.

Another series deals with CHO(WT*) cells. Description: Specificity: [3H]IP accumulation in control CHO(WT*) cells not expressing CaSR, various calcium, with or without ATP. The conditions noted are these: PHD 263 10 μM. Format: cell-based, Chinese hamster. Here is the method: as §1
PHD 263 (10 μM) has the same effect on the [^3H]IP response in the CHO(WT*) cells in the presence of 2 or 4 mM calcium, indicating an absence of a nonspecific effect of the compound linked to the variation of [Ca^2+]e.

On to `COc1ccc(OC)c(S(=O)(=O)NC2CCCC[C@@H]2NC(C)c2cccc3ccccc23)c1` (some centres unmarked) [AK 115], for which, at CaSR [1], the remaining activity at 10 µM is 100 ± 4%. On the same count and under the same terms, the figure for `CC(N[C@H]1CCCCC1NS(=O)(=O)c1cccc(Cl)c1)c1cccc2ccccc12` (some centres unmarked) [AK 116] is 40 ± 5%. For the compound `CC(N[C@H]1CCCCC1NS(=O)(=O)c1ccc(Cl)c(Cl)c1Cl)c1cccc2ccccc12` (some centres unmarked) [AK 117], the remaining activity at 10 µM at CaSR [1] came out at 42 ± 5%. On to `COc1cccc([C@@H](C)NCCCc2ccccc2Cl)c1` [NPS-R-568], for which the “reduction of cell proliferation observed in the parathyroid gland” value in series [2] was 20–50%. Besides, the bioavailability result in series [3] is “low bioavailability”. By melting point is commonly meant the temperature, or range, at which the solid turns liquid. Turning to `COc1ccc(S(=O)(=O)NC2CCCC[C@@H]2NC(C)c2cccc3ccccc23)cc1.Cl` (some centres unmarked) [PHD 263, N1-(4-methoxybenzenesulfonyl)-N-2-[1-(1-naphthyl)ethyl]cyclohexane-1,2-diamine], the melting point is 135 to 140 °C (dec.). Besides, the “accumulation of [^3H]IP as percentage of the basal level observed at 2 mM Ca2+ (100)” value on CaSR [4] is given as 124±10%. For the same compound, the “effect on the ATP-induced [^3H]IP response” value with CHO(WT*) cells (CHO(WT) cells, in the presence of ATP) was “adds to that of ATP”. Also, the “effect on the [^3H]IP response at 2 versus 4 mM calcium” value with CHO(WT*) cells (CHO(WT*) cells, 2 or 4 mM calcium) was “same effect”. On CaSR [1], the “inhibition of the accumulation of [^3H]IP induced by 9 mM (Ca^2+)e” value (“inhibition” below) came to 64% and the remaining activity at 10 µM is 37 ± 5%.

Consider `CC(N[C@H]1CCCCC1NCc1ccccc1Cl)c1cccc2ccccc12.Cl.Cl` (some centres unmarked) [PHD 346], for which, at CaSR [1], the “type of activity on production of [^3H]IP (calcimimetic/calcilytic)” value is “calcimimetic activity” and the remaining activity at 10 µM worked out at 110 ± 6%. Regarding `CC(N[C@H]1CCCCC1NCc1ccc(F)cc1)c1cccc2ccccc12.Cl.Cl` (some centres unmarked) [PHD 348], on CaSR [1], the “type of activity on production of [^3H]IP (calcimimetic/calcilytic)” value is “calcimimetic activity” and the remaining activity at 10 µM came to 119 ± 12%. `COc1ccc(S(=O)(=O)NC2CCCC[C@@H]2NC(C)c2cccc3ccccc23)cc1OC` (some centres unmarked) [PHD 349]: the remaining activity at 10 µM at CaSR [1] came to 64 ± 5%. Take `CC(N[C@H]1CCCCC1NS(=O)(=O)c1ccccc1Cl)c1cccc2ccccc12` (some centres unmarked) [PHD 350]: at CaSR [1], the “inhibition” value was 25% and the remaining activity at 10 µM turned out to be 74 ± 2%. As to `CC(N[C@H]1CCCCC1NS(=O)(=O)c1ccc([N+](=O)[O-])cc1)c1cccc2ccccc12` (some centres unmarked) [PHD 397], the remaining activity at 10 µM at CaSR [1] amounted to 43 ± 1%. `CC(N[C@H]1CCCCC1NS(=O)(=O)c1ccc(OC(F)(F)F)cc1)c1cccc2ccccc12.Cl` (some centres unmarked) [PHD 401]: at CaSR [1], the “inhibition” value came to 82% and the remaining activity at 10 µM is 18 ± 3%. In the case of `CC(N[C@H]1CCCCC1NS(=O)(=O)c1ccc(C(F)(F)F)cc1)c1cccc2ccccc12` (some centres unmarked) [PHD 403], the remaining activity at 10 µM on CaSR [1] turned out to be 21 ± 1%. On the same count and under the same terms, the figure for `CC(N[C@H]1CCCCC1NS(=O)(=O)c1ccc2ccccc2c1)c1cccc2ccccc12` (some centres unmarked) [PHD 404] is 39 ± 7%; for `CC(N[C@H]1CCCCC1NS(=O)(=O)c1ccc(Cl)cc1)c1cccc2ccccc12` (some centres unmarked) [PHD 406] it is 28 ± 1%; for `CC(N[C@H]1CCCCC1NS(=O)(=O)c1ccccc1)c1cccc2ccccc12` (some centres unmarked) [PHD 408] it is 56 ± 4%. The same measure, in the same setting: the figure for `COc1ccc(S(=O)(=O)NC2CC=CC[C@@H]2NC(C)c2cccc3ccccc23)cc1` (some centres unmarked) [PHD 511] is 75 ± 10%.
